Laboratory results taken from PubChem BioAssay AID330 (DTP/NCI, 2004).
Several values for one entry are separate records, joined by “and”; a condition that tells them apart may be missing. Equal entries are not always repeated. Toxic doses and inconclusive results are not listed. How the source made its calls: active means survival T/C of 150% or more; inactive means T/C below 125% in these data. Peptide text beside a SMILES is read from it. * marks the point of attachment. Cbz = O=C(OCc1ccccc1)*

Test system: P388 leukemia ip, CD2F1 mice, survival T/C
Assay: NCI In Vivo Anticancer Drug Screen. Data for tumor model P388 Leukemia (intraperitoneal) in CD2F1 (CDF1) mice
Settings: endpoint: median survival time, higher = longer survival
Procedure, shortened: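 Mice carrying the transplanted tumor received test compound or vehicle. Survival was recorded in each group, and the value is the treated-group measurement divided by that of the vehicle-treated control group.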

[1] = dose: 60.0 mg/kg/injection, schedule: Q01DX005 (ip), vehicle: saline with Tween-80
[2] = dose: 120.0 mg/kg/injection, schedule: Q01DX005 (ip), vehicle: saline with Tween-80
[3] = dose: 240.0 mg/kg/injection, schedule: Q01DX005 (ip), vehicle: saline with Tween-80
[4] = dose: 50.0 mg/kg/injection, schedule: Q01DX005 (ip), vehicle: saline with Tween-80
[5] = dose: 100.0 mg/kg/injection, schedule: Q01DX005 (ip), vehicle: saline with Tween-80
[6] = dose: 200.0 mg/kg/injection, schedule: Q01DX005 (ip), vehicle: saline with Tween-80
[7] = dose: 100.0 mg/kg/injection, schedule: Q01DX009 (ip), vehicle: saline
[8] = dose: 60.0 mg/kg/injection, schedule: Q01DX005 (ip), vehicle: saline
[9] = dose: 120.0 mg/kg/injection, schedule: Q01DX005 (ip), vehicle: saline
[10] = dose: 240.0 mg/kg/injection, schedule: Q01DX005 (ip), vehicle: saline
[11] = dose: 50.0 mg/kg/injection, schedule: Q01DX005 (ip), vehicle: Klucel (hydroxypropylcellulose) (HPC)
[12] = dose: 200.0 mg/kg/injection, schedule: Q01DX005 (ip), vehicle: Klucel (hydroxypropylcellulose) (HPC)
[13] = dose: 50.0 mg/kg/injection, schedule: Q01DX009 (ip), vehicle: Klucel (hydroxypropylcellulose) (HPC)
[14] = dose: 100.0 mg/kg/injection, schedule: Q01DX009 (ip), vehicle: Klucel (hydroxypropylcellulose) (HPC)
[15] = dose: 200.0 mg/kg/injection, schedule: Q01DX009 (ip), vehicle: Klucel (hydroxypropylcellulose) (HPC)

Measured: T/C

CC(=O)Nc1ccc2nc(/C=C/c3ccc(N(C)C)cc3)c(=O)oc2c1
inactive: [1] 102 % of control | [2] 96 % of control | [3] 91 % of control

CCC[CH2][Sn]([CH2]CCC)([O][P+](=O)C[Si](C)(C)c1ccccc1)[O][P+](=O)C[Si](C)(C)c1ccccc1 (centres undefined)
inactive: [1] 108 % of control | [2] 115 % of control | [3] 122 % of control

NNc1nncc2c1[nH]c1ccccc12
inactive: dose: 1.56 mg/kg/injection, schedule: Q01DX001 (ip), vehicle: saline with Tween-80 102 % of control | dose: 3.12 mg/kg/injection, schedule: Q01DX001 (ip), vehicle: saline with Tween-80 102 % of control | dose: 6.25 mg/kg/injection, schedule: Q01DX001 (ip), vehicle: saline with Tween-80 105 % of control | dose: 12.5 mg/kg/injection, schedule: Q01DX001 (ip), vehicle: saline with Tween-80 103 % of control

CSCCC(N)C(=O)NC(CC(N)=O)C(=O)O (stereo not drawn) (H-Met-Asn-OH; configuration not given here)
inactive: dose: 50.0 mg/kg/injection, schedule: Q01DX005 (ip), vehicle: saline 98 % of control | dose: 100.0 mg/kg/injection, schedule: Q01DX005 (ip), vehicle: saline 101 % of control | dose: 200.0 mg/kg/injection, schedule: Q01DX005 (ip), vehicle: saline 99 % of control

COC(=O)C1=CO[C@@H](OC2OC(CO)C(O)C(O)C2O)[C@H]2[C@@H]1C=C[C@@]21C=C([C@@H](C)O)C(=O)O1 (some centres undefined)
inactive: dose: 1.63 mg/kg/injection, schedule: Q01DX005 (ip), vehicle: Klucel (hydroxypropylcellulose) (HPC) 99 % of control | dose: 3.25 mg/kg/injection, schedule: Q01DX005 (ip), vehicle: Klucel (hydroxypropylcellulose) (HPC) 101 % of control | dose: 6.5 mg/kg/injection, schedule: Q01DX005 (ip), vehicle: Klucel (hydroxypropylcellulose) (HPC) 101 % of control | dose: 13.0 mg/kg/injection, schedule: Q01DX005 (ip), vehicle: Klucel (hydroxypropylcellulose) (HPC) 95 % of control

COc1cc(/C=N/NC(=O)C(N)Cc2ccc(O)cc2)ccc1O (centres undefined)
inactive: [4] 100 % of control | [5] 94 % of control | [6] 103 % of control

CC(=O)OC1C/C(C)=C/CCC(C)/C=C/C2(C)CCC(C(C)(C)O)C12 (centres undefined)
inactive: dose: 8.0 mg/kg/injection, schedule: Q01DX009 (ip), vehicle: Klucel (hydroxypropylcellulose) (HPC) 105 % of control | dose: 16.0 mg/kg/injection, schedule: Q01DX009 (ip), vehicle: Klucel (hydroxypropylcellulose) (HPC) 106 % of control | dose: 32.0 mg/kg/injection, schedule: Q01DX009 (ip), vehicle: Klucel (hydroxypropylcellulose) (HPC) 106 % of control | dose: 64.0 mg/kg/injection, schedule: Q01DX009 (ip), vehicle: Klucel (hydroxypropylcellulose) (HPC) 106 % of control

O=[N+]([O-])c1ccc(S(=O)(=O)Nc2ccc(-c3ccccc3)cc2)cc1
inactive: dose: 100.0 mg/kg/injection, schedule: Q01DX009 (ip), vehicle: other 105 % of control | dose: 200.0 mg/kg/injection, schedule: Q01DX009 (ip), vehicle: other 100 % of control | dose: 400.0 mg/kg/injection, schedule: Q01DX009 (ip), vehicle: other 100 % of control

CCOC(=O)Nc1cc(NC(C)CCCN(CC)CC)c2ncc(-c3cc(OC)c(OC)c(OC)c3)nc2n1 (centres undefined) (tested in a mixture with another compound)
inactive: dose: 66.0 mg/kg/injection, schedule: Q01DX009 (ip), vehicle: saline 118 % of control | [7] 109 % of control | dose: 150.0 mg/kg/injection, schedule: Q01DX009 (ip), vehicle: saline 104 % of control

O=S(=O)(O)CC(O)CN(CCO)CCO (centres undefined)
inactive: [8] 108 % of control | [9] 102 % of control | [10] 100 % of control

O=[N+]([O-])c1ccc(NCCO)c([N+](=O)[O-])c1
inactive: dose: 100.0 mg/kg/injection, schedule: Q04DX003 (ip), vehicle: saline with Tween-80 100 % of control | dose: 200.0 mg/kg/injection, schedule: Q04DX003 (ip), vehicle: saline with Tween-80 100 % of control | dose: 400.0 mg/kg/injection, schedule: Q04DX003 (ip), vehicle: saline with Tween-80 90 % of control

C/C(=N\N=C(N)N)c1ccccc1
inactive: dose: 6.25 mg/kg/injection, schedule: Q01DX009 (ip), vehicle: saline 110 % of control | dose: 12.5 mg/kg/injection, schedule: Q01DX009 (ip), vehicle: saline 101 % of control

CCOC(=O)CNC(=O)Nc1c(C)n(C)n(-c2ccccc2)c1=O
inactive: dose: 50.0 mg/kg/injection, schedule: Q01DX009 (ip), vehicle: saline 103 % of control | [7] 100 % of control | dose: 200.0 mg/kg/injection, schedule: Q01DX009 (ip), vehicle: saline 97 % of control

O=C(NC1CCCCC1NC(=O)C12CC3CC(CC(C3)C1)C2)C12CC3CC(CC(C3)C1)C2 (centres undefined)
inactive: dose: 6.0 mg/kg/injection, schedule: Q01DX005 (ip), vehicle: Klucel (hydroxypropylcellulose) (HPC) 95 % of control | dose: 12.0 mg/kg/injection, schedule: Q01DX005 (ip), vehicle: Klucel (hydroxypropylcellulose) (HPC) 88 % of control | [11] 88 % of control | [12] 92 % of control

O=C(O)c1ccccc1C(=O)OCc1ccccc1
inactive: dose: 100.0 mg/kg/injection, schedule: Q04DX003 (ip), vehicle: Klucel (hydroxypropylcellulose) (HPC) 100 % of control | dose: 200.0 mg/kg/injection, schedule: Q04DX003 (ip), vehicle: Klucel (hydroxypropylcellulose) (HPC) 100 % of control | dose: 400.0 mg/kg/injection, schedule: Q04DX003 (ip), vehicle: Klucel (hydroxypropylcellulose) (HPC) 97 % of control

CC(C)=CC[P+](CCCC[P+](CC=C(C)C)(c1ccccc1)c1ccccc1)(c1ccccc1)c1ccccc1
inactive: dose: 1.56 mg/kg/injection, schedule: Q04DX003 (ip), vehicle: saline 100 % of control | dose: 3.12 mg/kg/injection, schedule: Q04DX003 (ip), vehicle: saline 101 % of control

CN1CCC/C1=C\C(=O)c1ccco1
inactive: dose: 15.0 mg/kg/injection, schedule: Q01DX005 (ip), vehicle: Klucel (hydroxypropylcellulose) (HPC) 100 % of control | dose: 30.0 mg/kg/injection, schedule: Q01DX005 (ip), vehicle: Klucel (hydroxypropylcellulose) (HPC) 103 % of control | dose: 60.0 mg/kg/injection, schedule: Q01DX005 (ip), vehicle: Klucel (hydroxypropylcellulose) (HPC) 109 % of control and 89 % of control

N=C1C(O)=CC(=O)C(O)=C1C(=O)O
inactive: [8] 104 % of control | [9] 103 % of control | [10] 101 % of control

COC(=O)C1=C(C(=O)OC)C2C=CC1C1C(OC(C)=O)C(OC(C)=O)C21 (centres undefined)
inactive: [13] 100 % of control | [14] 100 % of control | [15] 107 % of control

O=CNC(Cc1ccccc1)c1ccc(OCc2ccccc2)cc1 (centres undefined)
inactive: [11] 98 % of control | dose: 100.0 mg/kg/injection, schedule: Q01DX005 (ip), vehicle: Klucel (hydroxypropylcellulose) (HPC) 92 % of control | [12] 87 % of control

O=C(NC(Cc1ccccc1)C(=O)N1CCCC1C(=O)O)OCc1ccccc1 (stereo not drawn) (Cbz-Phe-Pro-OH; configuration not given here)
inactive: [4] 95 % of control | [5] 100 % of control | [6] 97 % of control

Cc1ccc(S(=O)(=O)N=S(CCO)CCO)cc1
inactive: [13] 106 % of control | [14] 110 % of control | [15] 108 % of control | dose: 400.0 mg/kg/injection, schedule: Q01DX009 (ip), vehicle: Klucel (hydroxypropylcellulose) (HPC) 107 % of control
